Laboratory results: patent US20060057153A1, “Method and composition for the inhibition of mitosis” (priority 2002, published 2006)

What was measured:
S. pombe bir1-46 (Sp287) = experiment: Growth of bir1-46 on YES plates with thiabendazole; format: cell-based; conditions: 10 μg/ml TBZ, permissive temperature (28° C.), 3 days
Procedure: Briefly, to identify the phenotypes of the temperature sensitive allele, bir1-46, Wild-type and bir1-46 (Sp287) were streaked out on YES plates or 10 μg/ml of thiabendazole (TBZ), followed by incubation at either 28° C. or 32° C. for 3 days. Wild-type, bir1-46, and a rad3Δ were grown in YES medium to mid log phase (O.D.595=0.5-0.6) and then plated on YES plates followed by UV irradiation. Plates were cultured at 28° C. with a foil cover for 1 day and without a foil cover for subsequent 4 days. Colony numbers were calculated and survival rates were determined based on control plates, which were not irradiated. bir1-46 was transformed with vector alone (pUR19), pUR19-bir1^+, pUR19-Bsh3^+, or pUR19-pic1^+. Transformants were streaked out on YES plates followed by incubation at either 28° C. or 34° C. for 3 days. To conduct the high-copy suppressor screen, Sp287 (bir-46) was transformed with either a cDNA or genomic DNA library. Transformants were incubated at 28° C. for 20 hr followed by further incubation at 34° C. for five days.
Given that bir1^+ is required for chromosome segregation and cytokinesis, it is plausible that bir1^+ is also involved in mitotic spindle integrity.

HeLa cells = experiment: siRNA depletion in thymidine-synchronized HeLa cells, immunofluorescence staining of metaphase cells, with or without Vinblastine; format: cell-based, human; conditions: Buffer-transfected cells
Procedure: To further analyze the mitotic defects apparent in Bsh3-depleted cells, siRNA depletion was performed using thymidine-synchronized cells. Briefly, HeLa cells were blocked by thymidine 40 hr after siRNA transfection. After 20 hr of thymidine treatment, cells were washed and cultured in thymidine free media for 14 hr, followed by immunofluorescence staining analysis using the anti-centromere antibody, ANA-C (Sigma). Chromosomes and mitotic spindles were localized by Hoechst and anti-α-tubulin staining, respectively. […] To distinguish these two possibilities, siRNA depletion and video-microscopy were performed using a HeLa cell line expressing the histone H2B-GFP fusion protein. While the wild-type cells were able to congress and segregate their chromosomes in 45-60 min, siRNA treated cells (30%) took more than 2 hr for the same process due to the fact that some chromosomes were delayed in alignment at the metaphase plate. […] However, only 0.34% of buffer-treated cells remained in metaphase (Table 1).
To confirm this interpretation, it was analyzed whether human Bsh3 depleted cells were more sensitive to Vinblastine (VBL), a microtubule-disrupting drug. It has been shown that a low concentration of VBL (nM) alters microtubule dynamics without depolymerizing microtubules. As a result, it affects chromosome movement during metaphase and delays chromosome congression. In addition Vinblastine disrupts kinetochore tension without affecting spindle-kinetochore attachment.
siRNA depletion using thymidine-synchronized cells, which were released into culture media with different concentrations of VBL for 14 hr, was followed by immunofluorescence staining as described in the previous section.

[1] = system: HL-60, a promylocytic cell line; experiment: Bsh3 expression in HL-60 cells after treatment; format: cell-based; conditions: HL60 cells treated with the agent
From the text: In addition to being a marker of tumor aggressiveness and treatment potential, Bsh3 expression can be used as a measurement of the effectiveness of anti-tumor therapy. In the Examples, it is shown that HL-60, a promylocytic cell line, had high levels of Bsh3 expression. […] The reduction in expression correlated with the degree of differentiation, the greater the differentiation, the lower the level of Bsh3 expression. Accordingly, Bsh3 expression can be used to measure the effectiveness of anti-tumor treatment: if Bsh3 expression decreases during treatment, the treatment protocol is effective and can be continued, whereas if Bsh3 expression remains unaltered, a different therapeutic regime or protocol needs to be performed.

## c1ccc2[nH]c(-c3cscn3)nc2c1 [TBZ, Thiabendazole]
S. pombe bir1-46 (Sp287)
  growth of bir1-46: failed to grow

## CC[C@]1(O)C[C@@H]2CN(CCc3c([nH]c4ccccc34)[C@@](C(=O)OC)(c3cc4c(cc3OC)N(C)[C@H]3[C@@](O)(C(=O)OC)[C@H](OC(C)=O)[C@]5(CC)C=CCN6CC[C@]43[C@@H]65)C2)C1 [VBL, Vinblastine]
HeLa cells; VBL 0.1 nM for 14 hr
  % of cells in metaphase: 1.5%
HeLa cells; VBL 0.5 nM for 14 hr
  % of cells in metaphase: 1.7%
HeLa cells; VBL 1 nM for 14 hr
  % of cells in metaphase: 13.6%

## CC1=C(/C=C/C(C)=C/C=C/C(C)=C/C(=O)O)C(C)(C)CCC1 [retenoic acid]
[1]
  Bsh3 expression: reduction and elimination of Bsh3 expression
